In US20060134063A1, “Agents for proliferating pancreatic beta-cells of the islets of langerhans, agents for suppressing apoptosis of said cells, and screening of candidate compounds for these agents” (priority 2000, published 2006):
Values belong to the molecule of their own block, whether it stands above or below them.

Experiments:
[1] = test system: Reg gene; experiment: RT-PCR of Reg gene expression in RINm5F cells; type: cell-based, rat; conditions: 24 h with stimulants
Method: The Reg gene expression was analyzed by RT-PCR. The cells were harvested after 24 h of culturing in a medium supplemented with stimulants, and total RNA was prepared using cesium trifluoroacetate as described in Takasawa, S. et al. (1993) J. Biol. Chem., 268, 26052-26054. RT-PCR was performed using primers corresponding to nucleotides 23 to 43 and 572 to 593 of rat Reg mRNA (Terazono, K. et al. (1988) J. Biol. Chem., 263, 2111-2114).

[2] = test system: 5'-flanking region of the rat Reg gene; experiment: Reg promoter/luciferase reporter assay in RINm5F cells; type: cell-based; conditions: 2,303-bp Reg 5'-flanking fragment; 24 h stimulation
Method: A 2,303-bp fragment containing the 5′-flanking region of Reg gene was fused to the luciferase gene and transfected into RINm5F β-cells.
Specifically, luciferase reporter gene constructs were generated as described in Miyashita, H. et al. (1994) Biochim. Biophys. Acta, 1219, 241-243. RINm5F cells were seeded at 1×10^5 cells/well in 24-well dish. After 48 h, 3.0 μg of test plasmid and 0.2 μg of pCMV-SPORT β-gal (Life Technologies, Inc.) were transfected by lipofection (Felgner, J. H. et al. (1994) J. Biol. Chem., 269, 2550-2561) using DMRIE-C™ (Life Technologies, Inc.). After 24 h, the medium of each dish was replaced with fresh medium containing stimulants and incubated further for 24 h. Cells were harvested in 1 ml of ice-cold phosphate-buffered saline (PBS), washed twice with PBS, and extracts were prepared in extraction buffer (0.1 M potassium phosphate, pH 6.8, 1 mM DTT). The protein concentration was determined using a Coomassie reagent kit (Pierce) and bovine serum albumin as a standard. Luciferase activity was determined by a chemiluminescence substrate using a Pica Gene™ Luminescence Kit (Toyo Ink Mfg. Co, Ltd., Tokyo, Japan). β-galactosidase activity was determined using Aurora™ GAL-XE (ICN).

[3] = molecular target: T1, poly(ADP-ribose) synthetase/polymerase (PARP) (Rattus norvegicus, UniProt P27008); experiment: GMSA binding reaction of RINm5F nuclear extracts, effects of ADP-ribosylation; type: biochemical; conditions: for intensity of the IL-6/dexamethasone/nicotinamide-dependent GMSA band: added to the binding reaction prior to the 32P-probe
T1 construct: Nuclear extracts from RINm5F cells were prepared as described; endogenous in cells; host or cells: RINm5F (rat insulinoma) nuclear extract
T1 sequence (P27008 whole entry): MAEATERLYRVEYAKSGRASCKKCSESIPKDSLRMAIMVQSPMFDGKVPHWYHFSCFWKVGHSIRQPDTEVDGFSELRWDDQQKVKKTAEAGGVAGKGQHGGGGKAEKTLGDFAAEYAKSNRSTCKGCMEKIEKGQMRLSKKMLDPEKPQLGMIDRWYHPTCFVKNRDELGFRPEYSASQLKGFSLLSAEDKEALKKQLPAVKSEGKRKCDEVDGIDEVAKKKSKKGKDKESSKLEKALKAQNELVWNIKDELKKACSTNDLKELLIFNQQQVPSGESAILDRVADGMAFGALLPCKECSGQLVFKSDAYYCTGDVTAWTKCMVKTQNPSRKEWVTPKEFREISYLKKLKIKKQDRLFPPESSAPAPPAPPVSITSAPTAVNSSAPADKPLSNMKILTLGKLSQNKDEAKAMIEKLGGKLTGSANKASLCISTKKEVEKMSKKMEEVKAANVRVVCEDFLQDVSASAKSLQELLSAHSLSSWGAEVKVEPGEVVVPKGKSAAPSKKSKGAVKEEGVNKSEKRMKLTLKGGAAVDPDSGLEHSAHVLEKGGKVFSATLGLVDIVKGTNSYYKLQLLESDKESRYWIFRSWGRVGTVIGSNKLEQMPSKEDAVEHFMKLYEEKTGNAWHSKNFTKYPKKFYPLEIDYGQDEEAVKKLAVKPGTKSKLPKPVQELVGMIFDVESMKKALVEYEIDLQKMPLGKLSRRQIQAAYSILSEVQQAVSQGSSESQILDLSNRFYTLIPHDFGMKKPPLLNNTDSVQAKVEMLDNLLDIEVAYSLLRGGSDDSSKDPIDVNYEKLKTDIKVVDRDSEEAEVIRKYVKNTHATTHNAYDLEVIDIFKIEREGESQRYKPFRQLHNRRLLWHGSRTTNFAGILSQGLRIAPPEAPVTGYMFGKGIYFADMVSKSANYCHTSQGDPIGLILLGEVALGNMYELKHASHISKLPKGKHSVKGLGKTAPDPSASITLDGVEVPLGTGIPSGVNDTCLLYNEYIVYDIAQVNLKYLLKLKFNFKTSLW
Method: The nuclear extract (10 μg) was incubated in a final volume of 20 μl of buffer containing 20 mM Tris-HCl (pH 7.9), 2 mM MgCl2, 50 mM NaCl, 2 mM EDTA, 10% glycerol, 0.1% Nonidet P-40, 1 mM DTT, 50 μg/ml bovine serum albumin and 1 μg of poly(dI-dC). After incubation for 10 min at room temperature, 2.5 pmol of double-stranded DNA, previously labeled by an exchange reaction using MEGALABEL (Takara Shuzo) and [γ-^32P]ATP (Amersham Pharmacia Biotech), were added and incubated for 30 min at room temperature, then the binding reactions were resolved on pre-run 6% acrylamide gel. […] After electrophoresis, DNA/proteins were electrophoretically transferred to a PolyScreen™ PVDF membrane (NEN).
Poly(ADP-ribosyl)ation of nuclear proteins was performed in the same condition as GMSA in the presence of 62 nM [adenylate-^32P]NAD^+ (2×10^6 cpm, NEN). The ADP-ribosylated proteins were precipitated by the addition of 9 volume of acetone, separated by SDS-PAGE (12.5%) and autoradiographed.

[4] = test system: 90% depancreatized rats; conditions: cited from earlier work
[5] = test system: RINm5F cell lines, #1, #6, and #24, which stably express the Reg protein receptor; experiment: TUNEL apoptosis assay in RINm5F cell lines #1, #6, #24 expressing Reg protein receptor; type: cell-based, rat; conditions: HGF 0, 2.5, 25 ng/ml; 24 h; every cell line
Method: Rat insulinoma RINm5F cell lines, #1, #6, and #24, which stably express Reg protein receptor (Kobayashi, S. et al. (2000) J. Biol. Chem. 275, 10723-10726) were similarly cultured as in Example 4 and 1,000 nM Reg protein and HGF at varied concentrations, 0, 2.5, and 25 ng/ml were added thereto. Twenty-four hours after the addition of Reg protein/HGF, apoptosis was measured by TUNEL method using an Apoptosis Screening kit (Wako Pure Chemical Industries Ltd., Osaka, Japan) as described in Kobayashi, S. et al. (2000) J. Biol. Chem. 275, 10723-10726.

[6] = test system: Reg protein; experiment: Immunoblot of secreted Reg protein in RINm5F culture medium; type: cell-based, rat; conditions: 24 h incubation with stimulants
Method: The Reg protein levels in the RINm5F cultured media were examined after stimulation. After 24-hour incubation of the cells in a medium supplemented with stimulants, the medium was collected, and subjected to immunoblot analyses as described in Watanabe, T. et al. (1990) J. Biol. Chem., 265, 7432-7439. The medium of RINm5F cells was subjected to SDS polyacrylamide gel electrophoresis (SDS-PAGE) and electrotransferred to a PVDF membrane as described in Takasawa, S. et al. (1993) J. Biol. Chem., 268, 26052-26054. Western blotting was carried out using an anti-rat Reg monoclonal antibody (Terazono, K. et al. (1990) Diabetologia, 33, 250-252).

[7] = test system: non-obese diabetic (NOD) mice; conditions: cited from earlier work
[8] = test system: RINm5F cell lines, #1, #6, and #24, which stably express the Reg protein receptor; conditions: 1,000 nM Reg protein added to culture media; cited from earlier work

Molecule: NC(=O)c1cccc(N)c1 [3-aminobenzamide]
Reg gene expression (Reg mRNA) [1]: no effect on Reg expression
luciferase activity (result in words) [2]: ineffective
IC50 ([3]; 1 mM β-NAD+ in the GMSA binding reaction, read-out: concentrations of half maximal inhibition (quenching of the effect of β-NAD+ on the GMSA band)): 30 µM
development of diabetes after 90% pancreatectomy ([4]; PARP inhibitor-treated rats): preventing the development of diabetes

intensity of the IL-6/dexamethasone/nicotinamide-dependent GMSA band [3]: did not attenuate the band intensity
Molecule: Nc1ncnc2c1ncn2[C@@H]1O[C@H](COP(=O)(O)OP(=O)(O)OC[C@H]2OC(O)[C@H](O)[C@@H]2O)[C@@H](O)[C@H]1O (some centres unmarked) [ADP-ribose]

intensity of the IL-6/dexamethasone/nicotinamide-dependent GMSA band [3]: did not attenuate the band intensity
Molecule: N=c1c2ncn3c2ncn1[C@@H]1O[C@H](COP(=O)(O)OP(=O)(O)OC[C@H]2O[C@@H]3[C@H](O)[C@@H]2O)[C@@H](O)[C@H]1O [cyclic ADP-ribose]

intensity of the IL-6/dexamethasone/nicotinamide-dependent GMSA band [3]: not
Molecule: NC(=O)c1ccc[n+]([C@H]2O[C@H](COP(=O)(O)OP(=O)(O)OC[C@H]3O[C@@H](n4cnc5c(N)ncnc54)[C@H](O)[C@@H]3O)[C@@H](O)[C@H]2O)c1 [α-NAD^+]

intensity of the IL-6/dexamethasone/nicotinamide-dependent GMSA band [3]: attenuated
Molecule: NC(=O)c1ccc[n+]([C@@H]2O[C@H](COP(=O)([O-])OP(=O)(O)OC[C@H]3O[C@@H](n4cnc5c(N)ncnc54)[C@H](O)[C@@H]3O)[C@@H](O)[C@H]2O)c1 [β-NAD^+]

Molecule: HGF: hepatocyte growth factor (HGF; Sigma)
apoptosis induced by 1,000 nM Reg protein (TUNEL) [5]: concentration-dependently inhibited apoptosis

Molecule: IL-1β: IL-1β (Sigma), stimulant
Reg gene expression (Reg mRNA) [1]: no effect on Reg expression

Molecule: IL-6: interleukin (IL)-6, a cytokine whose receptor is gp130 (Genzyme)
Reg gene expression (Reg mRNA) [1]: no effect on Reg expression
luciferase activity (result in words) [2]: ineffective
Reg protein secretion into the medium [6]: did not induce Reg protein secretion

Molecule: TNFα
Reg gene expression (Reg mRNA) [1]: no effect on Reg expression

B1: Human REG protein: human REG protein, 166-amino acid protein with 68% identity to rat Reg protein (protein, UniProt P05451 1-166, looked up)
chain: MAQTSSYFMLISCLMFLSQSQGQEAQTELPQARISCPEGTNAYRSYCYYFNEDRETWVDADLYCQNMNSGNLVSVLTQAEGAFVASLIKESGTDDFNVWIGLHDPKKNRRWHWSSGSLVSYKSWGIGAPSSVNPGYCVSLTSSTGFQKWKDVPCEDKFSFVCKFKN
modifications: full-length
notes: human REG protein, 166-amino acid protein with 68% identity to rat Reg protein
β-cell mass [7]: induced an expansion of the β-cell mass

B2: Recombinant rat Reg protein: recombinant rat Reg protein, 165-amino acid protein with a 21-amino acid signal peptide (protein, UniProt P10758 1-165, looked up)
chain: MTRNKYFILLSCLMVLSPSQGQEAEEDLPSARITCPEGSNAYSSYCYYFMEDHLSWAEADLFCQNMNSGYLVSVLSQAEGNFLASLIKESGTTAANVWIGLHDPKNNRRWHWSSGSLFLYKSWDTGYPNNSNRGYCVSVTSNSGYKKWRDNSCDAQLSFVCKFKA
modifications: full-length
notes: recombinant rat Reg protein, 165-amino acid protein with a 21-amino acid signal peptide
β-cell replication and β-cell mass in the residual pancreas ([4]; 90% depancreatized rats): stimulated β-cell replication and increased the β-cell mass

B3: Reg protein: product of Reg (regenerating gene), stimulates β-cell proliferation (protein)
chain: QEAEEDLPSARITCPEGSNAYSSYCYYFMEDHLSWAEADLFCQNMNSGYLVSVLSQAEGNFLASLIKESGTTAANVWIGLHDPKNNRRWHWSSGSLFLYKSWDTGYPNNSNRGYCVSVTSNSGYKKWRDNSCDAQLSFVCKFKA
proliferation and apoptosis of the cells [8]: induced not only proliferation but also apoptosis
